# Measured values: US20210353624A1, “METHOD OF TREATING CANCER WITH TELOTRISAT OR A PRODRUG THEREOF” (TerSera Therapeutics LLC, priority 2020, published 2021)
# What was measured:
# [1] = tested on: colon cancer (HT-29); assay: Cell confluence of tumor cell line grown with telotristat ethyl; assay type: cell-based; settings: HT-29 cells; 0, 5, 15 and 30 μM telotristat ethyl; 24 to 96 hours; impact ranked between 94T778 and TFK-1
# Experimental: (§1) This example provides experiments assessing the effects of telotristat ethyl on three aggressive cancer cell lines—liposarcoma (94T778), colon cancer (HT-29), and cholangiocarcinoma (TFK-1)—and three “normal” cell lines—fallopian tube epithelium (FT240), ovarian surface epithelium (OSE22), and first trimester placental fibroblasts (FTP).
# (§2) The cells were grown with 0, 5, 15 and 30 μM telotristat ethyl, plated into four-chambered slides with an initial confluence of at least 30%, and cultured for 24 to 96 hours. At the end of each 24-hour period, cell density was measured with hematoxylin, and the presence of 5-HT was assessed by immunohistochemistry. Experiments were performed in triplicate. Cell confluence was determined, and the 5-HT expression was recorded as an H-score.
# [2] = tested on: liposarcoma (94T778); assay: as above; assay type: cell-based; settings: 94T778 cells; 0, 5, 15 and 30 μM telotristat ethyl; 24 to 96 hours; confluence decreased progressively with concentration
# Experimental: as §1, §2
# [3] = tested on: CgA; assay: Biomarker changes after TE initiation (TELEACE): CgA; assay type: in vivo, human; settings: n=15
# Experimental: (§3) This example provides the effects of telotristat ethyl treatment on selected patient biomarkers (i.e., u5-HIAA; CgA; 5-HT; and NT-proBNP) in the retrospective, single arm study of Example 4.
# (§4) The average (SD) duration of documented TE treatment was 12.0 (7.3) months with a median (IQR) of 9.0 (6.8, 15.2) months. In many cases, a patient received a TE dosage of 250 mg three times per day.
# (§5) Patients with reported biomarker values below, at, or above normal range in pre-TE and post-TE initiation periods were described using proportions and frequencies. The biomarkers were assessed only among patients with complete biomarker assessment results in both pre-TE and post-TE initiation periods. McNemar's test was used to calculate P-values for the differences in paired proportions of patients with values above the upper limit of normal.
# (§6) For the biomarker results below, the pre-TE initiation period is defined as 12 months before the index date (initiation of TE). The assessment closest to the index date during the pre-TE period was reported for each biomarker.
# (§7) The post-TE initiation period is defined as a period from index date to the earlier of end of treatment with TE or date of chart abstraction. The assessment closest to the date of chart abstraction during the post-TE period was reported for each biomarker.
# (§8) The data includes patients with reported biomarker values, units, and laboratory ranges during pre- and post-TE initiation periods. It excludes patients who had different biomarker units or laboratory ranges reported pre- and post-TE initiation.
# (§9) The normal range was defined by reported laboratory lower limit of normal and upper limit of normal.
# McNemar's test could not be performed because all patients had CgA value above normal range pre-TE initiation.
# [4] = tested on: 5-HT; assay: Biomarker changes after TE initiation (TELEACE): 5-HT; assay type: in vivo, human; settings: n=22
# Experimental: as §3, §4
# The continuous measures of biomarker values pre- and post-TE initiation were described using mean, SD, median, and IQR. The biomarkers were assessed only among patients with complete biomarker assessment results in both pre-TE and post-TE initiation periods. A Wilcoxon signed rank test was used to calculate P-values for the mean change in biomarker value.
# as §5
# To evaluate the relationship between the change in biomarker values (i.e., u5-HIAA; CgA; 5-HT) and the change in tumor progression between the pre- and post-TE periods, Pearson's correlation coefficient was used to assess the correlation between biomarker assessments and tumor sizes and to derive the associated P-values. The correlations were assessed only among patients with complete biomarker assessment results in both pre-TE and post-TE initiation periods. The relationship between biomarker values and tumor sizes during pre-TE and post-TE initiation period was presented using scatterplots.
# as §6, §7, §8, §9
# The Wilcoxon signed rank test was used to calculate P-values for the mean change in biomarker values pre- and post-TE initiation.
# Table 5-4 is based on patients who had complete biomarker assessment results (u5-HIAA: N=22; 5-HT: N=22) in both pre-TE and post-TE initiation periods. Correlation analysis was not conducted for CgA and NT-proBNP due to small sample sizes for CgA (n=15) and NT-proBNP (n=2). Pearson's correlation coefficient was used to assess the correlation between biomarker assessments and tumor sizes and to derive the associated P-values. Values have been converted to mg/24 hours based on the following conversion rate: […].
# [5] = tested on: human intrahepatic CCA cells CCLP-1; assay: Animal survival in CCLP-1 peritoneal dissemination model; assay type: in vivo, NOD/SCID mice; settings: two weeks therapy: gemcitabine 50 mg/kg 2×wk, cisplatin 2.5 mg/kg 2×wk, nab-paclitaxel 5 mg/kg 2×wk, telotristat ethyl 100 mg/kg 5×wk, controls 47 days
# Experimental: (§10) The human intrahepatic CCA cells CCLP-1 were cultured in DMEM containing 10% FBS. Animal survival was studied in a peritoneal dissemination model, and a tumor growth study was performed in subcutaneous xenografts using 4-6 weeks old female NOD/SCID mice by injecting 10×10^6 CCLP-1 cells per mouse. Ten days after tumor cell injection, mice were randomized (n=4-7) to receive PBS (control), gemcitabine (50 mg/kg, 2×wk), cisplatin (2.5 mg/kg, 2×wk survival study, 1×wk tumor growth study), nab-paclitaxel (5 mg/kg, 2×wk) or telotristat ethyl (100 mg/kg, 5×wk), for two weeks. In the survival study, mice were monitored daily and euthanized when moribund, and survival was measured from the first day of treatment until death. In the tumor growth study, tumor size was measured twice per week and tumor volume was measured using the formula V=½ (L×W2, with L=length and W=width). Comparative statistics utilized one-way ANOVA, Student's t-test and logrank methods.
# [6] = tested on: human intrahepatic CCA cells CCLP-1; assay: Tumor growth study in CCLP-1 subcutaneous xenografts; assay type: in vivo, NOD/SCID mice
# Experimental: as §10
# [7] = Changes in carcinoid syndrome symptoms, body weight and ECOG Performance Status after TE initiation (TELEACE); assay type: in vivo, human
# Source text: Time to tumor progression was defined as the time from telotristat ethyl initiation to the first documented tumor progression in the medical chart. […] Progression-free survival (PFS) was defined as the time from telotristat ethyl initiation to tumor progression or death. […] Physician-assessed changes in body weight, Eastern Cooperative Oncology Group (ECOG) Performance Status, and CS symptoms including diarrhea, flushing, abdominal pain, nausea and ascites were abstracted from medical charts before and after telotristat ethyl initiation. In order to evaluate the effect of telotristat ethyl treatment on secondary clinical outcomes, analyses were conducted in the overall population and in a subgroup of patients who had the same documented non-telotristat ethyl neuroendocrine tumor treatment before and after telotristat ethyl initiation. Descriptive statistics summarized patient demographic and clinical characteristics, and changes in body weight and ECOG Performance Status after telotristat ethyl treatment initiation. Kaplan-Meier analyses estimated median time to tumor progression and median PFS. Chi-square test evaluated changes in documented CS symptoms (improved vs same/worsened) before and after telotristat ethyl initiation. All analyses were performed using SAS version 9.4 (SAS Institute, Cary, N.C., USA). To evaluate the change in CS symptoms, weight, and ECOG performance status between the pre- and post-TE periods, patients with documented CS symptoms (i.e., abdominal pain, ascites, diarrhea, flushing, nausea) pre-TE initiation were described using proportions and frequencies. The change in documented CS symptoms, weight, and ECOG performance status after TE Initiation (i.e., improved/increased, stayed the same/remained unchanged, worsened/decreased) were also described using proportions and frequencies. P-values were calculated using Chi-square test for equal proportions for change in CS symptoms (i.e., proportion of patients with improved vs. stayed the same/worsened CS symptoms).
compound,measurement,setting,value
"CCOC(=O)[C@@H](N)Cc1ccc(-c2cc(O[C@H](c3ccc(Cl)cc3-n3ccc(C)n3)C(F)(F)F)nc(N)n2)cc1 [telotristat ethyl, (S)-ethyl 2-amino-3-(4-(2-amino-6-((R)-1-(4-chloro-2-(3-methyl-1H-pyrazol-1-yl)phenyl)-2,2,2-trifluoroethoxy)pyrimidin-4-yl)phenyl)propanoate]",cell confluence,[1],between these two
same,cell confluence,[2],most impacted
same,patients with CgA above normal range pre-TE who had normal CgA value post-TE initiation,[3],~30%
same,"CgA At normal range Post-TE, n (%)",[3]; pre-TE 0 (0),4 (26.7) n (%)
same,"CgA Below normal range Post-TE, n (%)",[3]; pre-TE 0 (0),0 (0) n (%)
same,"CgA Above normal range Post-TE, n (%)",[3]; pre-TE 15 (100.0),11 (73.3) n (%)
same,"5-HT Measurement (ng/24 hours) Post-TE Initiation, Median (IQR)","[4]; IQR 320.0, 700.0, pre-TE 459.5 (389.0, 701.0)",399.5 ng/24 hours
same,"5-HT Below normal range Post-TE, n (%)",[4]; pre-TE 0 (0),0 (0) n (%)
same,"5-HT At normal range Post-TE, n (%)",[4]; pre-TE 1 (4.5),2 (9.1) n (%)
same,"5-HT Above normal range Post-TE, n (%)","[4]; pre-TE 21 (95.5), P=0.317",20 (90.9) n (%)
same,"5-HT Measurement (ng/24 hours) Post-TE Initiation, Mean ± SD","[4]; pre-TE 648.9 ± 448.1, P=0.026",533.5 ± 329.2 ng/24 hours
same,animal survival,[5],52 days
same,tumor weight at the completion of therapy,[6]; controls 0.187 g,0.091 g
same,net tumor growth,"[6]; gemcitabine 50 mg/kg 2×wk, cisplatin 2.5 mg/kg 1×wk, nab-paclitaxel 5 mg/kg 2×wk, telotristat ethyl 100 mg/kg 5×wk, two weeks, controls 199 mm^3",93 mm^3
same,Body weight and ECOG Performance Status after telotristat ethyl,[7]; overall population and same NET treatment subgroup,improved or unchanged for most patients
same,patients with improvement in nausea after TE initiation,"[7]; overall population, n=41",78%
same,patients with improvement in abdominal pain after TE initiation,"[7]; overall population, n=69",81%
same,patients with improvement in flushing after TE initiation,"[7]; overall population, n=88",81%
same,patients with improvement in diarrhea after TE initiation,"[7]; overall population, n=133",85%
